Measurements published in publication PMC7308888, “Development of a cell-free split-luciferase biochemical assay as a tool for screening for inhibitors of challenging protein-protein interaction targets” (Wellcome Open Research, 2020).

Target: T1, KRAS-G12C (Homo sapiens, UniProt P01116, G12C)
T1 construct: full-length KRAS-G12C, Sm-BiT fused at the N-terminus; with p110α RBD (aa133-314), LgBiT fusion
Experiment: NanoBiT split-luciferase KRAS/RBDα interaction assay in HEK293 cell lysate
Type: biochemical

## Cn1cnc(Cn2ccc3ccc(CNCc4[nH]c5ccccc5c4[C@H]4NC(=O)c5ccc(O)cc54)cc32)c1 [BI-2852]
  NanoBiT split-luciferase KRAS/RBDα interaction assay in HEK293 cell lysate: ~ 1 µM
